Key:
[1] = test system: GBM8 glioblastoma patient-derived cell culture; test: In vitro drug screening, cell viability by CellTiter GLO 2.0 after 5 days; assay type: cell-based; settings: Homo sapiens, 120 h, 5 days incubation
Method: (§1) Glioblastoma stem-like cell cultures (GSC) were derived from primary brain tumor samples received directly from the operating room. Tumor classification was performed by the local neuropathologist according to guidelines of the WHO 2007 and 2016 classification of primary brain tumors. The use of patient tissue for this study was approved by the local ethics committee and all patients signed informed consent forms according to the guidelines of the Institutional Review Board. Samples were processed as described previously. The GBM8 cell line was kindly provided by dr. Hiroaki Wakimoto (Massachusetts General Hospital, Boston, MA, USA). All cell cultures were grown in Dulbecco’s modified Eagle’s medium (DMEM)–F12 with 1% penicillin/streptomycin, B27 (Invitrogen), human epidermal growth factor (EGF; 5 μg/mL), human basic fibroblast growth factor (FGF; 5 μg/mL) (both from Tebu-Bio) and heparin ([…]; Sigma-Aldrich, St. Louis, MI, USA).
(§2) Glioma stem-like cell cultures were cultured under serum free conditions according to Verheul et al.. Cells were seeded in 96-well plates (Greiner bio-one, Kremsmünster, Austria) coated with extracellular matrix (BD Bioscience, Becton Drive Franklin Lakes, NJ, USA) at 1000 cells/well. A stock solution of OMA was diluted in a serum-free cell culture medium to obtain a starting concentration of 8 μM in 0.1% DMSO. Serial dilutions of OMA and DMSO were added to the wells 24 h later for an incubation period of 5 days. Cell viability was measured by the CellTiter GLO 2.0 and dose–response curves and IC50 values were calculated using GraphPad Prism version 9. All experiments were performed in 3 biological replicates.
(§3) GraphPad Prism software version 9.5 (GraphPad Software) was used for calculating IC50 values using nonlinear regression (curve-fit). GraphPad Prism was used to determine whether there was a statistically significant difference in OMA concentration and the B/P ratio between the L and R hemispheres of mice bearing GS832, GS607 and GBM8 tumors, using an unpaired t-test. […]

[2] = test system: GS607 glioblastoma patient-derived cell culture; test: as above; assay type: cell-based; settings: Homo sapiens, 120 h, 5 days incubation
Method: as §1, §2, §3

[3] = humans, cited from earlier work

SMILES: COC(=O)C[C@](O)(CCCC(C)(C)O)C(=O)O[C@@H]1C(OC)=C[C@]23CCCN2CCc2cc4c(cc2[C@H]13)OCO4 [OMA, Omacetaxine mepesuccinate]
- IC50 [1]: 7.2 nM
- IC50 [2]: 22.9 nM
- time to reach Cmax plasma ([3]; s.c. administration): 1 h
- Cmax ([3]; DrugBank, read-out: reported Cmax plasma value): 43 nM
- half-life [3]: 7 h
